Laboratory results: patent US20150315218A1, “SALTS OF PRODRUGS OF PIPERAZINE AND SUBSTITUTED PIPERIDINE ANTIVIRAL AGENTS” (Bristol-Myers Squibb Company, priority 2004, published 2015)
“And” between values parts separate entries of the source, which are not always exact repeats. Equal entries are not always repeated. “Also recorded” adds a separate entry of the source. Structures can show the parent of a compound that is named as a salt. Where two headings read alike, the source gives them in different places.

Key:
[1] = target: T1, human placental alkaline phosphatase (ALP) (Homo sapiens, UniProt P05187); assay: Hydrolysis of prodrug in human placental ALP solutions; format: in vitro ADME; settings: human placental ALP solution, 37°C, 120 min, read-out: t1/2 (min) of prodrug disappearance
T1 construct: To study the hydrolysis of lab in a purified form of human ALP, Iab was incubated in human placental ALP solutions; host or cells: human placenta (inferred from the name and from 'ALP derived from humans')
T1 sequence (P05187 23-506 limits assumed): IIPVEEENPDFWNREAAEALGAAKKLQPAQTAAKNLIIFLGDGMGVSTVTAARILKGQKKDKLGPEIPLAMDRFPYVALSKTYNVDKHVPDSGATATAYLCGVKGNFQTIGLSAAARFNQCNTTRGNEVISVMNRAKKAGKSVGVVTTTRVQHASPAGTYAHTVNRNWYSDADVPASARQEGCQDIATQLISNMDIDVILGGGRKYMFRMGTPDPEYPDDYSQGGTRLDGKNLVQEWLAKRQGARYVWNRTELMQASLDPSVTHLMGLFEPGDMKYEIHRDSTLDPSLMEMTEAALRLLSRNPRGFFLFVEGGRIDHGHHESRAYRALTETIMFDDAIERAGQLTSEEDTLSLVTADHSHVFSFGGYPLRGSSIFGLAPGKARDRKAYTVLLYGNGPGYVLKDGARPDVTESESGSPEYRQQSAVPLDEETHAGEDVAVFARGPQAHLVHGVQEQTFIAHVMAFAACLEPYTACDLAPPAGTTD
Experimental: Solid human placental ALP was obtained from Sigma (P-3895, St. Louis, Mo.). […] Solutions of 100 and 10 units/L were obtained by serial dilution. Iab was incubated in the 10, 100 and 1000 units/L solutions (n=2) at 37° C. for 2 hr. The starting concentration of Iab in the incubation was 10 μM. Aliquots of 100 μL samples were taken at pre-determined times and added into K2EDTA microtainers followed by the addition of 200 μL of acetonitrile.
Solid human placental ALP was obtained from Sigma (P-3895, St. Louis, Mo.). […] Solutions of 100 and 10 units/L were obtained by serial dilution. Ibb was incubated in the 10, 100 and 1000 units/L solutions (n=2) at 37° C. for 2 hr. The starting concentration of Ibb in the incubation was 10 μM. Aliquots of 100 μL samples were taken at pre-determined times and added into K2EDTA microtainers followed by the addition of 200 μL of acetonitrile.
Solid human placental ALP was obtained from Sigma (P-3895, St. Louis, Mo.). […] Solutions of 100 and 10 units/L were obtained by serial dilution. Icb was incubated in the 10, 100 and 1000 units/L solutions (n=2) at 37° C. for 2 hr. The starting concentration of Icb in the incubation was 10 μM. Aliquots of 100 μL samples were taken at pre-determined times and added into K2EDTA microtainers followed by the addition of 200 μL of acetonitrile. The supernatant was analyzed for both Icb and IVe by LC/MS/MS.

rat hepatocytes = assay: Hydrolysis of prodrug in hepatocytes (rat); format: in vitro ADME
Experimental: The in vitro intrinsic clearance of Ibb in hepatocytes (Clint) was calculated as follows: Clint(μL/min/million cells)=Rate/CE where Rate is the rate of metabolism in hepatocytes (pmol/min/million cells), and CE is the concentration of Ibb in the incubation. The in vitro intrinsic clearance of Icb in hepatocytes (Clint) was calculated as follows: Clint(μL/min/million cells)=Rate/CE where Rate is the rate of metabolism in hepatocytes (pmol/min/million cells), and CE is the concentration of Icb in the incubation.

physchem = settings: thermodynamic from solid
in vitro = settings: dog, serum
Experimental: (§1) The stability of Iab was studied in fresh blood and serum from rat, dog, monkey and human (n=2). The blood was collected in vacutainers containing K2EDTA (Becton Dickinson, Franklin Lakes, N.J.). The serum was collected in vacutainers containing no anticoagulant. Iab was incubated at a starting concentration of approximately 10 μM for 60-90 min at 37° C. Serial samples were taken at the pre-determined times. Aliquots of blood samples (200 μL) were first mixed with 100 μL of water followed by 400 μL of acetonitrile. The serum samples (50 μL) were added into microtainers containing K2EDTA (Becton Dickinson, Franklin Lakes, N.J.) followed by the addition of 100 μL of acetonitrile. The supernatant was analyzed for both Iab and IVa by LC/MS/MS. The stability of Ibb was studied in fresh blood and serum from rat, dog, monkey and human (n=2). The blood was collected in vacutainers containing K2EDTA (Becton Dickinson, Franklin Lakes, N.J.). The serum was collected in vacutainers containing no anticoagulant. Ibb was incubated at a starting concentration of approximately 15 μM for 90 min at 37° C. Serial samples were taken at the pre-determined times. Aliquots of blood samples (200 μL) were first mixed with 100 μL of water followed by 400 μL of acetonitrile. The serum samples (50 μL) were added into microtainers containing K2EDTA (Becton Dickinson, Franklin Lakes, N.J.) followed by the addition of 100 μL of acetonitrile. […] The stability of Icb was studied in fresh blood and serum from rat, dog, monkey and human (n=2). The blood was collected in vacutainers containing K2EDTA (Becton Dickinson, Franklin Lakes, N.J.). The serum was collected in vacutainers containing no anticoagulant. Icb was incubated at a starting concentration of approximately 10 μM for 90 min at 37° C. Serial samples were taken at the pre-determined times. Aliquots of blood samples (200 μL) were first mixed with 100 μL of water followed by 400 μL of acetonitrile. The serum samples (50 μL) were added into microtainers containing K2EDTA (Becton Dickinson, Franklin Lakes, N.J.) followed by the addition of 100 μL of acetonitrile.

[2] = Stability of prodrug in fresh EDTA blood (rat); settings: for Ibb: Ibb in fresh rat EDTA blood, 37° C., n = 2; for conversion of prodrug to parent in blood containing EDTA: rat blood, 60 min (Iab) or 90 min (Ibb, Icb); for Iab / IVa Formed: Rat EDTA blood
Experimental: as §1

[3] = Stability of prodrug in fresh EDTA blood (monkey); settings: for Ibb: Ibb in fresh monkey EDTA blood, 37° C., n = 2; for Iab / IVa Formed: Monkey EDTA blood
Experimental: as §1

[4] = Stability (hydrolysis) of prodrug in fresh serum (dog); settings: for Ibb: Ibb in fresh dog serum, 37° C., n = 2; for Iab / IVa Formed: Dog Serum
Experimental: as §1

[5] = Effect of food on oral absorption of IVa in dogs after Iab or IVa capsules; format: in vivo, dog
Experimental: To study the effect of food on the oral absorption of IVa after administration of Iab and IVa, these two compounds were administered in capsules as solid to a group of three dogs in a cross-over fashion under overnight fasting and fed conditions. There was a one-week washout period between each study. Iab was administered at 200 mg per dog (ca 20 mg/kg) of IVa equivalent; IVa was administered in a clinical capsule formulation at 200 mg per dog (ca 20 mg/kg). In the studies where the dogs were fed, the following meal was prepared: 2 slices of bacon, 2 eggs, 2 pieces of toast with butter and jelly, 4 oz. hash browns and 8 oz. of whole milk. After homogenization using a laboratory blender, the meal was equally divided into five portions and kept frozen. Before the study, the meals were thawed and each dog was fed one portion.

[6] = pH 7.5, ALP Activity 10 Units/L
[7] = pH 7.5, ALP Activity 100 Units/L
[8] = pH 7.5, ALP Activity 1000 Units/L

Work on `O=C(C(=O)N1CCN(C(=O)c2ccccc2)CC1)c1cn(COP(=O)(O)O)c2c(-n3ccnn3)ncc(F)c12` [Ibb, [3-[(4-benzoylpiperazin-1-yl)(oxo)acetyl]-4-fluoro-7-(1H-1,2,3-triazol-1-yl)-1H-pyrrolo[2,3-c]pyridin-1-yl]methyl dihydrogen phosphate, L-lysine salt (1:1)] yielded a half-life at 10 μM [1, 6] of 198 min, a half-life at 10 μM [1, 7] of 16 min and a half-life at 10 μM [1, 8] of 2 min. The “hydrolysis in the presence of hepatocytes” value (“hydrolysis in the presence” for short) (rat hepatocytes; rat hepatocytes, qualitative) was “hydrolyzed”, the solubility (physchem; aqueous solution (pH range 1.5 to 8.7), aqueous buffer) was greater than 11000 µg/mL and the half-life at 15 μM (in vitro) was 2.78 h. The “Ibb” value ([2]; 0 min) was 15 µM, the “Ibb” value ([2]; 15 min) was 15 µM and the “Ibb” value ([2]; 30 min) was 18 µM. The “Ibb” value ([2]; 45 min) was 15 µM, the “Ibb” value ([2]; 60 min) was 16 µM and the “Ibb” value ([2]; 90 min) was 17 µM. For the same molecule, the “conversion of prodrug to parent in blood containing EDTA” value (“conversion of prodrug to parent” for short) ([2]; 37°C) was less than 2%, the “Ibb” value ([3]; 0 min) was 16 µM and the “Ibb” value ([3]; 15 min) was 19 µM. For the same molecule, the “Ibb” value ([3]; 30 min) was 18 µM, the “Ibb” value ([3]; 45 min) was 18 µM and the “Ibb” value ([3]; 60 min) was 19 µM. The “Ibb” value ([3]; 90 min) was 17 µM, the “conversion of prodrug to parent” value ([3]; monkey blood, 37°C, 60 min (Iab) or 90 min (Ibb, Icb)) was less than 2% and the “Ibb” value ([4]; 0 min) was 13 µM. For the same molecule, the “Ibb” value ([4]; 15 min) was 12 µM, the “Ibb” value ([4]; 30 min) was 11 µM and the “Ibb” value ([4]; 45 min) was 10 µM. The “Ibb” value ([4]; 60 min) was 10 µM and the “Ibb” value ([4]; 90 min) was 8.9 µM.

For `COc1cnc(-n2cnc(C)n2)c2c1c(C(=O)C(=O)N1CCN(C(=O)c3ccccc3)CC1)cn2COP(=O)(O)O` [Icb, [3-[(4-benzoylpiperazin-1-yl)(oxo)acetyl]-4-methoxy-7-(3-methyl-1H-1,2,4-triazol-1-yl)-1H-pyrrolo[2,3-c]pyridin-1-yl]methyl dihydrogen phosphate, 2-amino-2-(hydroxymethyl)propane-1,3-diol salt (1:1)], the half-life at 10 μM [1, 6] was 250 min, the half-life at 10 μM [1, 7] was 29 min and the half-life at 10 μM [1, 8] was 2.4 min. The “hydrolysis in the presence” value (rat hepatocytes) was “hydrolyzed” and the half-life at 10 μM (in vitro) was 2.6 h.

For `COc1cnc(OC)c2c1c(C(=O)C(=O)N1CCN(C(=O)c3ccccc3)CC1)cn2COP(=O)(O)O` [Iab, {3-[(4-benzoylpiperazin-1-yl)(oxo)acetyl]-4,7-dimethoxy-1H-pyrrolo[2,3-c]pyridin-1-yl}methyl dihydrogen phosphate, L-lysine salt (1:1)], the half-life at 10 μM [1, 6] was 186 min, the half-life at 10 μM [1, 7] was 14 min and the half-life at 10 μM [1, 8] was 1.4 min. The “AUC of IVa from Iab capsules (fasted dogs) relative to fed dogs given IVa clinical capsule” value ([5]; 200 mg/dog of IVa equivalent) was 4 times, the “Cmax of IVa from Iab capsules (fasted dogs) relative to fed dogs given IVa clinical capsule” value ([5]; 200 mg/dog of IVa equivalent) was 6 times and the “difference in AUC and Cmax of IVa between fasted and fed dogs” value ([5]; dogs receiving Iab capsules) was “No significant differences; also recorded: not significantly different”. The “Cmax of IVa from Iab capsules relative to IVa clinical capsule in fasted dogs” value ([5]; fasted dogs, 200 mg/dog of IVa equivalent) was 58 times, the “hydrolysis in the presence” value (rat hepatocytes; rat hepatocytes, qualitative) was “hydrolyzed” and the solubility (physchem; aqueous solution, aqueous buffer) was greater than 12000 µg/mL. The solubility (physchem; aqueous solution, pH 1.4, simulated gastric fluid) was 220 µg/mL, the half-life at 10 μM (in vitro) was 3.03 h and the “Iab / IVa Formed” value ([2]; 37°C, 0 min) was 8.0 µM. For the same molecule, the “Iab / IVa Formed” value ([2]; 20 min) was 8.8 µM, the “Iab / IVa Formed” value ([2]; 40 min) was 10 µM and the “Iab / IVa Formed” value ([2]; 60 min) was 10 µM. The “conversion of prodrug to parent” value ([2]; 37°C) was < 2% and 1.2%, the “Iab / IVa Formed” value ([3]; 0 min) was 8.5 µM and the “Iab / IVa Formed” value ([3]; 20 min) was 9.2 µM. The “Iab / IVa Formed” value ([3]; 40 min) was 9.2 µM, the “Iab / IVa Formed” value ([3]; 60 min) was 8.7 µM and the “Iab / IVa Formed” value ([4]; 37°C, 0 min) was 9.2 µM. For the same molecule, the “Iab / IVa Formed” value ([4]; 15 min) was 9.0 µM, the “Iab / IVa Formed” value ([4]; 30 min) was 7.8 µM and the “Iab / IVa Formed” value ([4]; 45 min) was 7.8 µM. The “Iab / IVa Formed” value ([4]; 60 min) was 7.1 µM and the “Iab / IVa Formed” value ([4]; 90 min) was 6.7 µM.
